Assay [1] addresses T1, hMC3-R (Homo sapiens, UniProt P41968).
T1 construct: expressed in transfected cells; host or cells: CHO-K1
The experiment in a line: cyclic AMP bioassay, hMC3-R. Type of assay: cell-based.
Description: (§3) Intracellular cyclic AMP (cAMP) levels were determined by an electrochemiluminescence (ECL) assay (Meso Scale Discovery®, Gaithersburg, Md.; referred to hereinafter as MSD). […] Transgenic CHO-K1 cells stably expressing hMC receptor subtypes 1, 3, 4 or 5 were dispensed at a density of approximately 7,000 cells/well in 384-well Multi-Arrays plates (MSD) containing integrated carbon electrodes and coated with anti-CAMP antibody. Increasing concentrations of the test compounds were added and the cells were incubated for approximately 40 minutes at approximately 37° C. […] At the end of the second incubation period read buffer (Tris-buffered solution containing an ECL co-reactant and Triton X-100 at ph 7.8) was added and the cAMP levels in the cell lysates were immediately determined by ECL detection with a Sector Imager 6000 Reader® (MSD). Data were analyzed using a computer-assisted non-linear regression analysis (XL fit; IDBS) and reported as either an EC50 value or a Kb value.
(§4) The Kb value reflects the potency of an antagonist and is determined by Schild analysis. In brief, concentration-response curves of an agonist are carried out in the presence of increasing concentrations of an antagonist. […] It is calculated by extrapolating the line on a Schild plot to zero on the y-axis.

Assay [2] addresses T2, hMC1-R (Homo sapiens, UniProt Q01726).
T2 construct: expressed in transfected cells; host or cells: CHO-K1
The experiment in a line: cyclic AMP bioassay, hMC1-R. Type of assay: cell-based.
Description: as §3, §4

The target in assay [3] is T3, hMC5-R (Homo sapiens, UniProt P33032).
T3 construct: expressed in transfected cells; host or cells: CHO-K1
T3 sequence (P33032 whole entry): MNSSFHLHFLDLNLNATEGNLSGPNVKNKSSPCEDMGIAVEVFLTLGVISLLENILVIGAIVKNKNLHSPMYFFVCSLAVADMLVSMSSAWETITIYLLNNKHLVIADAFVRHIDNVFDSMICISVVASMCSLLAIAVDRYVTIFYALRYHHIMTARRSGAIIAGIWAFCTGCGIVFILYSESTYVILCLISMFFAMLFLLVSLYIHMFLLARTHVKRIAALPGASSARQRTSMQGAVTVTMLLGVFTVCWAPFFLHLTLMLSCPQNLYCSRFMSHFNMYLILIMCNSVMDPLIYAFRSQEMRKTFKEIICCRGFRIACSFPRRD
Description: Radioligand binding assay, hMC5-R. How it is done: (§1) Cellular membranes used for the in vitro receptor binding assays were obtained from transgenic CHO-K1 cells stably expressing hMC-R receptor subtypes 1, 3, 4 or 5. […] The pellets were resuspended in the same buffer and centrifuged at 50,000 g for 10 minutes at approximately 4° C. The washed pellets containing the cellular membranes were stored at approximately −80° C.
(§2) Filters were washed three times with 50 mM Tris-HCl at p-H 7.4 at a temperature of approximately 0-4° C. and then assayed for radioactivity using a Packard Topcount® scintillation counter. Binding data were analyzed by computer-assisted non-linear regression analysis (XL fit; IDBS).

Assay [4] has as its target T3, hMC5-R. Description: cyclic AMP bioassay, hMC5-R. Type of assay: cell-based.
Description: as §3, §4
The target of assay [5] is T4, hMC4-R (Homo sapiens, UniProt P32245).
T4 construct: expressed in transfected cells; host or cells: CHO-K1
T4 sequence (P32245 whole entry): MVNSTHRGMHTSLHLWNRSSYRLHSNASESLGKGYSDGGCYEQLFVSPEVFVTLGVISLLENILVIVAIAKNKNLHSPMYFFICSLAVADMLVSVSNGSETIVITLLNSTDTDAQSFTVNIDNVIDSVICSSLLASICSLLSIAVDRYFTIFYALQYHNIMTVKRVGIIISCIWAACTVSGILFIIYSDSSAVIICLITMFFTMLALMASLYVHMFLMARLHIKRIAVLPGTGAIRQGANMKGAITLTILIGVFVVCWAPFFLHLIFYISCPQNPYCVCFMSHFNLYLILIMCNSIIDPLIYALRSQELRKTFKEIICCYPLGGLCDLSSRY
The experiment in a line: Radioligand binding assay, hMC4-R. The method, then: as §1, §2

Assay [6] concerns the target T1, hMC3-R. The experiment in a line: Radioligand binding assay, hMC3-R. How it is done:
as §1, §2

The target of assay [7] is T2, hMC1-R. Description: Radioligand binding assay, hMC1-R. How it is done: as §1, §2
The target of assay [8] is T4, hMC4-R. Description: cyclic AMP bioassay, hMC4-R. Type of assay: cell-based.
Description: as §3, §4

Read-outs that look alike come from different tables or passages of the source. Where a SMILES comes first, the peptide text is derived from it. Bridges are numbered along the chain shown (N, C = ends). [ ]: non-standard residue; d: D form. 2Nal = N[C@@H](Cc1ccc2ccccc2c1)C(=O)O; d2Nal = N[C@H](Cc1ccc2ccccc2c1)C(=O)O; Aib = CC(C)(N)C(=O)O

T2 sequence (Q01726 whole entry): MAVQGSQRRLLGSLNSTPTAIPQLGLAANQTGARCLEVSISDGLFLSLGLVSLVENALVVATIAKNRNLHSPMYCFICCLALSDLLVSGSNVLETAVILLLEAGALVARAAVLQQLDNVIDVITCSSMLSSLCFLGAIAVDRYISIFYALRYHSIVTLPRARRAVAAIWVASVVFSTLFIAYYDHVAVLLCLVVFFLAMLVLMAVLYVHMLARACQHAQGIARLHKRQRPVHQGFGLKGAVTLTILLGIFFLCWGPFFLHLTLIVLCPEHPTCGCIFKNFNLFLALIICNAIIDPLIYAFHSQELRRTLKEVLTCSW
T1 sequence (P41968 whole entry): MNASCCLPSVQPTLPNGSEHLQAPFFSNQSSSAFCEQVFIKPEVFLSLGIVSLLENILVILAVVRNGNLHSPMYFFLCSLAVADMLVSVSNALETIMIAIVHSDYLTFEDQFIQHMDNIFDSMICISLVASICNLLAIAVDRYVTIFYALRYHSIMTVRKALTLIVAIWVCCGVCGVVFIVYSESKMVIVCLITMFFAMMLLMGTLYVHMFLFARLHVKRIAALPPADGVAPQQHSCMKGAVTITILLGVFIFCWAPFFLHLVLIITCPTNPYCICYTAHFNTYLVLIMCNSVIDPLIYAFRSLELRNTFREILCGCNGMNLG

For the compound `CCCC[C@H](NC(C)=O)C(=O)N[C@H]1CSSC[C@@H](C(=O)NCCC(=O)N[C@@H](CCCNC(=N)N)C(=O)N[C@@H](CCCNC(=N)N)C(=O)N[C@@H](CCCCN)C(=O)N[C@@H](CCCNC(=N)N)C(=O)N[C@@H](CCCNC(=N)N)C(=O)N[C@@H](CCC(N)=O)C(=O)N[C@@H](CCCNC(=N)N)C(=O)N[C@@H](CCCNC(=N)N)C(=O)N[C@@H](CCCNC(=N)N)C(N)=O)NC(=O)[C@H](Cc2c[nH]c3ccccc23)NC(=O)[C@H](CCCNC(=N)N)NC(=O)[C@@H](Cc2ccccc2)NC(=O)[C@H](Cc2c[nH]cn2)NC(=O)[C@@H](C)NC1=O`, the half-maximal effective concentration (EC50) turned out to be 1.39 nM on hMC3-R [1], 1.86 nM on hMC1-R [2], 165 nM at hMC5-R [4] and 0.367 nM at hMC4-R [8]. For the same compound, the inhibitory constant (Ki) at hMC5-R [3] amounted to 58.5 nM; at hMC4-R [5], 0.484 nM; at hMC3-R [6], 1.23 nM; on hMC1-R [7], 0.212 nM.

As to `CCCC[C@H](NC(C)=O)C(=O)N[C@H]1CSSC[C@@H](C(=O)NCCC(=O)N[C@@H](CCCNC(=N)N)C(=O)N[C@@H](CCCCN)C(=O)N[C@@H](CCCNC(=N)N)C(=O)N[C@@H](CCCNC(=N)N)C(=O)N[C@@H](CCCNC(=N)N)C(=O)N[C@@H](CCC(N)=O)C(=O)N[C@@H](CCCNC(=N)N)C(=O)N[C@@H](CCCNC(=N)N)C(=O)N[C@@H](CCCNC(=N)N)C(N)=O)NC(=O)[C@H](Cc2c[nH]c3ccccc23)NC(=O)[C@H](CCCNC(=N)N)NC(=O)[C@@H](Cc2ccccc2)NC(=O)[C@H](Cc2c[nH]cn2)NC(=O)[C@@H](C)NC1=O`, the EC50 at hMC3-R [1] is 1.61 nM; on hMC1-R [2], 2.06 nM; on hMC5-R [4], 199 nM; on hMC4-R [8], 0.394 nM. Further, the Ki amounted to 47 nM on hMC5-R [3], 0.468 nM on hMC4-R [5], 1.22 nM on hMC3-R [6] and 0.778 nM at hMC1-R [7].

For `CCCC[C@H](NC(C)=O)C(=O)N[C@H]1CSSC[C@@H](C(=O)NCCC(=O)NCC(=O)N[C@@H](CCCNC(=N)N)C(=O)N[C@@H](CCCCN)C(=O)N[C@@H](CCCNC(=N)N)C(=O)N[C@@H](CCCNC(=N)N)C(=O)N[C@@H](CCCNC(=N)N)C(=O)N[C@@H](CCC(N)=O)C(=O)N[C@@H](CCCNC(=N)N)C(=O)N[C@@H](CCCNC(=N)N)C(=O)N[C@@H](CCCNC(=N)N)C(N)=O)NC(=O)[C@H](Cc2c[nH]c3ccccc23)NC(=O)[C@H](CCCNC(=N)N)NC(=O)[C@@H](Cc2ccccc2)NC(=O)[C@H](Cc2c[nH]cn2)NC(=O)[C@@H](C)NC1=O`, the EC50 on hMC3-R [1] was determined as 3.29 nM; at hMC1-R [2] it was 2.81 nM; on hMC5-R [4], 566 nM; on hMC4-R [8], 0.298 nM. The Ki worked out at 0.293 nM at hMC4-R [5] and 1.21 nM on hMC3-R [6].

Consider `CC(=O)N[C@H]1CSSC[C@@H](C(=O)N2CCC[C@H]2C(=O)N2CCC[C@H]2C(=O)N[C@@H](CCCNC(=N)N)C(=O)N[C@@H](CC(=O)O)C(=O)NCCC(=O)N[C@@H](CCCNC(=N)N)C(=O)N[C@@H](CCCNC(=N)N)C(=O)N[C@@H](CCCNC(=N)N)C(=O)N[C@@H](CCCNC(=N)N)C(=O)N[C@@H](CCCNC(=N)N)C(=O)N[C@@H](CCC(N)=O)C(=O)N[C@@H](CCCNC(=N)N)C(=O)N[C@@H](CCCNC(=N)N)C(=O)N[C@@H](CCCNC(=N)N)C(N)=O)NC(=O)[C@H](C)NC(=O)[C@H](Cc2cccc3ccccc23)NC(=O)[C@H](CCCNC(=N)N)NC(=O)[C@@H](Cc2ccc3ccccc3c2)NC(=O)[C@H](Cc2c[nH]cn2)NC(=O)[C@H](CCC(=O)O)NC1=O`, for which the figures for the Kb on hMC3-R [1] and on hMC4-R [8] were 116 nM and 8.93 nM, respectively. Besides, the results for the EC50 on hMC1-R [2] and on hMC5-R [4] were 144 nM and 819 nM, respectively. This compound also yielded a Ki at hMC4-R [5] of 0.293 nM.

For `CC(=O)N[C@H]1CSSC[C@@H](C(=O)N2CCC[C@H]2C(=O)N2CCC[C@H]2C(=O)N[C@@H](CCCCN)C(=O)N[C@@H](CC(=O)O)C(=O)NCCC(=O)N[C@@H](Cc2ccc(O)cc2)C(=O)NCC(=O)N[C@@H](CCCNC(=N)N)C(=O)N[C@@H](CCCCN)C(=O)N[C@@H](CCCNC(=N)N)C(=O)N[C@@H](CCCNC(=N)N)C(=O)N[C@@H](CCCNC(=N)N)C(=O)N[C@@H](CCC(N)=O)C(=O)N[C@@H](CCCNC(=N)N)C(=O)N[C@@H](CCCNC(=N)N)C(=O)N[C@@H](CCCNC(=N)N)C(N)=O)NC(=O)[C@H](C)NC(=O)[C@H](Cc2cccc3ccccc23)NC(=O)[C@H](CCCNC(=N)N)NC(=O)[C@@H](Cc2ccc3ccccc3c2)NC(=O)[C@H](Cc2c[nH]cn2)NC(=O)[C@H](CCC(=O)O)NC1=O`, the Kb amounted to 26.3 nM on hMC3-R [1] and 14.6 nM at hMC4-R [8]. For the same compound, the results for the EC50 at hMC1-R [2] and at hMC5-R [4] were 102 nM and 261 nM, respectively. Moreover, the inhibition constant Ki on hMC3-R [6] was 1.61 nM.

Turning to `CC(=O)N[C@H]1CSSC[C@@H](C(=O)N2CCC[C@H]2C(=O)N2CCC[C@H]2C(=O)N[C@@H](CCCCN)C(=O)N[C@@H](CC(=O)O)C(=O)NCCC(=O)N[C@@H](Cc2ccc(O)cc2)C(=O)NCC(=O)N[C@@H](CCCNC(=N)N)C(=O)N[C@@H](CCCNC(=N)N)C(=O)N[C@@H](CCCCN)C(=O)N[C@@H](CCCNC(=N)N)C(=O)N[C@@H](CCCNC(=N)N)C(=O)N[C@@H](CCC(N)=O)C(=O)N[C@@H](CCCNC(=N)N)C(=O)N[C@@H](CCCNC(=N)N)C(=O)N[C@@H](CCCNC(=N)N)C(N)=O)NC(=O)[C@H](C)NC(=O)[C@H](Cc2ccc3ccccc3c2)NC(=O)[C@H](CCCNC(=N)N)NC(=O)[C@@H](Cc2ccc3ccccc3c2)NC(=O)[C@H](Cc2c[nH]cn2)NC(=O)[C@H](CCC(=O)O)NC1=O`, the results for the Kb on hMC3-R [1] and at hMC4-R [8] were 39.3 nM and 10.3 nM, respectively. Moreover, the EC50 at hMC1-R [2] was 58.7 nM; at hMC5-R [4], 460 nM. Moreover, the results for the Ki at hMC5-R [3] and on hMC3-R [6] were 15.3 nM and 1.12 nM, respectively.

For the compound `CC(=O)N[C@H]1CSSC[C@@H](C(=O)N2CCC[C@H]2C(=O)N2CCC[C@H]2C(=O)N[C@@H](CCCCN)C(=O)N[C@@H](CC(=O)O)C(=O)NCCC(=O)N[C@@H](CCCNC(=N)N)C(=O)N[C@@H](CCCNC(=N)N)C(=O)N[C@@H](CCCNC(=N)N)C(=O)N[C@@H](CCCNC(=N)N)C(=O)N[C@@H](CCCNC(=N)N)C(=O)N[C@@H](CCCNC(=N)N)C(=O)N[C@@H](CCC(N)=O)C(=O)N[C@@H](CCCNC(=N)N)C(=O)N[C@@H](CCCNC(=N)N)C(=O)N[C@@H](CCCNC(=N)N)C(N)=O)NC(=O)[C@H](C)NC(=O)[C@H](Cc2ccc3ccccc3c2)NC(=O)[C@H](CCCNC(=N)N)NC(=O)[C@@H](Cc2ccc3ccccc3c2)NC(=O)[C@H](Cc2c[nH]cn2)NC(=O)[C@H](CCC(=O)O)NC1=O`, the figures for the Kb at hMC3-R [1] and at hMC4-R [8] were 13.6 nM and 13.4 nM, respectively. This compound also came in with an EC50 on hMC1-R [2] of 29.1 nM. The compound further returned a Ki at hMC1-R [7] of 3.65 nM.

As to `CC(=O)N[C@H]1CSSC[C@@H](C(=O)N2CCC[C@H]2C(=O)N2CCC[C@H]2C(=O)N[C@@H](CCCCN)C(=O)N[C@@H](CC(=O)O)C(=O)NCCC(=O)NCC(=O)N[C@@H](CCCNC(=N)N)C(=O)N[C@@H](CCCCN)C(=O)N[C@@H](CCCNC(=N)N)C(=O)N[C@@H](CCCNC(=N)N)C(=O)N[C@@H](CCCNC(=N)N)C(=O)N[C@@H](CCC(N)=O)C(=O)N[C@@H](CCCNC(=N)N)C(=O)N[C@@H](CCCNC(=N)N)C(=O)N[C@@H](CCCNC(=N)N)C(N)=O)NC(=O)[C@H](C)NC(=O)[C@H](Cc2ccc3ccccc3c2)NC(=O)[C@H](CCCNC(=N)N)NC(=O)[C@@H](Cc2ccc3ccccc3c2)NC(=O)[C@H](Cc2c[nH]cn2)NC(=O)[C@H](CCC(=O)O)NC1=O`, the Kb was 22.8 nM at hMC3-R [1] and 17.1 nM on hMC4-R [8]. The figures for the EC50 on hMC1-R [2] and on hMC5-R [4] were 309 nM and 570 nM, respectively. On hMC1-R [7], this compound returned a Ki of 5.66 nM.

As to `CCCC[C@H](N)C(=O)N[C@H]1CC(=O)NCCCC[C@@H](C(=O)NCCOCCOCC(=O)NCCOCCOCC(=O)N[C@@H](Cc2ccc(O)cc2)C(=O)NCC(=O)N[C@@H](CCCNC(=N)N)C(=O)N[C@@H](CCCCN)C(=O)N[C@@H](CCCCN)C(=O)N[C@@H](CCCNC(=N)N)C(=O)N[C@@H](CCCNC(=N)N)C(=O)N[C@@H](CCC(N)=O)C(=O)N[C@@H](CCCNC(=N)N)C(=O)N[C@@H](CCCNC(=N)N)C(=O)N[C@@H](CCCNC(=N)N)C(N)=O)NC(=O)[C@H](Cc2c[nH]c3ccccc23)NC(=O)[C@H](CCCNC(=N)N)NC(=O)[C@@H](Cc2ccc3ccccc3c2)NC(=O)[C@H](Cc2c[nH]cn2)NC1=O`, the Kb at hMC3-R [1] (Table 3A, cAMP in CHO-K1 cells, antagonist potency by Schild analysis, read-out: Kb hMC3-R) worked out at 261 nM; on hMC4-R [8] (Table 3A, cAMP in CHO-K1 cells, antagonist potency by Schild analysis, read-out: Kb hMC4-R) it was 3.11 nM. Moreover, the Ki on hMC4-R [5] (read-out: Ki hMC4-R) is 6 nM.

Regarding `CC(=O)N[C@H]1CSSC[C@@H](C(=O)N2CCC[C@H]2C(=O)N2CCC[C@H]2C(=O)N[C@@H](CCCCN)C(=O)N[C@@H](CC(=O)O)C(N)=O)NC(=O)C(C)(C)NC(=O)[C@H](Cc2ccc3ccccc3c2)NC(=O)[C@H](CCCNC(=N)N)NC(=O)[C@@H](Cc2ccc3ccccc3c2)NC(=O)[C@H](Cc2c[nH]cn2)NC(=O)[C@H](CCC(=O)O)NC1=O` [Ac-c(Cys-Glu-His-D-2-Nal-Arg-2-Nal-Aib-Cys)-Pro-Pro-Lys-Asp-NH2] (Ac-CEH[d2Nal]R[2Nal][Aib]CPPKD-NH2; disulfide 1-8), the values for the Kb at hMC3-R [1] and at hMC4-R [8] were 221 nM and 4.52 nM, respectively. In addition, the half-maximal effective concentration (EC50) on hMC1-R [2] is 770 nM; at hMC5-R [4] it was 869 nM. The Ki on hMC4-R [5] amounted to 5.87 nM.

In general, EC50 refers to the concentration needed to bring the measured effect to its halfway point. By Ki is commonly meant a measure of affinity in units of concentration, obtained from inhibition or displacement.
